This is an account of results in patent publication US9586952B2, “Polycyclic estrogen receptor modulators and uses thereof” (SERAGON PHARMACEUTICALS, INC., priority 2013, dated 2017).

The subject of assay [1] is MCF-7 cells. Kind of assay: MCF7 Viability Assay (Breast Cancer Cell Viability Assay). The class given is cell-based. As to conditions: 5 days' compound exposure, CellTiter-Glo; for IC50: Homo sapiens, MCF7, 120 h. As to the method:
MCF-7 cells were adjusted to a concentration of 20,000 cells per mL in RPMI containing 10% FBS and 20 mM HEPES. 16 microliters of the cell suspension (320 cells) was added to each well of a 384 well plate, and the cells were incubated overnight to allow the cells to adhere. The following day an eleven point, serial semilog dilution of each compound was added to the cells in 16 μL at a final concentration ranging from 0.3-0.000003 μM. After 5 days' compound exposure, 16 μL of CellTiter-GLo (Promega, Madison Wis.) was added to the cells, and the relative luminescence units (RLUs) of each well were determined. CellTiter-Glo added to 32 μL of medium without cells was used to obtain a background value. The Percent viability of each sample was determined as follows: (RLU sample-RLU background/RLU untreated cells-RLU background)×100=% viability.

The target of assay [2] is T1, ER-α (Homo sapiens, UniProt P03372).
T1 construct: endogenous in cells; host or cells: MCF-7
T1 sequence (P03372 1-595): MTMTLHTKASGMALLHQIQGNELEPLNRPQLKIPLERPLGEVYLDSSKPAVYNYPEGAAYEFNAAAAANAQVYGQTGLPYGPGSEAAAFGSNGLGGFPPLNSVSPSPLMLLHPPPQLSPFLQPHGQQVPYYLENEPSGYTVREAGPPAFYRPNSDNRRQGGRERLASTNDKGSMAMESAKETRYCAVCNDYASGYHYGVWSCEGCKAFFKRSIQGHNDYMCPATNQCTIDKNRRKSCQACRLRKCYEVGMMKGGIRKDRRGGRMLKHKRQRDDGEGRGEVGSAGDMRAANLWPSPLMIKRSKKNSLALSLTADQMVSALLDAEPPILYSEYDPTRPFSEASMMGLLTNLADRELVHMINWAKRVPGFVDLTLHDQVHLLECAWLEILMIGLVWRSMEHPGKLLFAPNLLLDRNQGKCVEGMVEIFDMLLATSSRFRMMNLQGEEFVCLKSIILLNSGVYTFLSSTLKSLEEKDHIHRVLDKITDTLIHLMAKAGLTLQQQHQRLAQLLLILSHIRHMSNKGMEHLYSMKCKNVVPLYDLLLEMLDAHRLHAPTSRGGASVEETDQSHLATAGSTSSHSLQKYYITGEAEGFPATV
Nature of the assay: Breast Cancer Cell ER-α In Cell Western Assay (SP1). The class given is cell-based. As to conditions: MCF-7 cells, 4 or 24 hr post compound addition, SP1 antibody; for Emax: MCF7, read-out: ER-α In Cell Western Assay (SP1) Max Response; for DC50: read-out: ER-α In Cell Western Assay (SP1) IC50. Here is the method:
MCF-7 cells were adjusted to a concentration of 200,000 cells per mL in RPMI containing 10% charcoal-stripped FBS and 20 mM HEPES. 16 microliters of the cell suspension (3200 cells) was added to each well of a poly-D-lysine 384 well plate, and the cells were incubated overnight to allow the cells to adhere. The following day an eleven point, serial semilog dilution of each compound was added to the cells in 16 μL at a final concentration ranging from 0.3-0.000003 μM. At 4 or 24 hr post compound addition, the cells were fixed (10% formalin in PBS) for 20 minutes. Cells were permeablized in PBS 0.1% Triton and blocked with LICOR blocking buffer (50 μl/well, 90′). The wells were then incubated overnight at 4° C. with SP1 rabbit monoclonal Ab (Thermo Scientific) diluted 1:1000 in LICOR blocking buffer/0.1% Tween-20. Wells which were treated with blocking buffer with Tween but no antibody were used as a background control. Wells were washed with 0.1% Tween-20/PBS and then incubated in goat anti-rabbit IRDye™ 800 CW (LICOR Inc.; 1:10000) and DRAQ5 DNA dye (1:2000 for 2 mM stock) diluted in LICOR blocking buffer containing 0.1% Tween-20 and 0.01% SDS for 60 minutes. Cells were washed (50 μl/well, 5′ each) in 0.1% Tween-20/PBS. Plates were scanned on a LICOR Odyssey infrared imaging system. Integrated intensities in the 800 nm channel and 700 nm channel were measured to determine levels of ER and DNA respectively. Percent ER levels were determined as follows: (Integrated intensity 800 nm sample/integrated intensity 700 nm sample)/(Integrated intensity 800 nm untreated cells/integrated intensity 700 nm untreated cells)×100=% ER levels.

Consider `O=C(O)/C=C/c1ccc(/C(=C(\c2ncc(C(F)(F)F)cc2Cl)C2CCC2)c2ccc(-c3cncs3)cc2)cc1` [Example 59, (E)-3-(4-((E)-2-(3-Chloro-5-(trifluoromethyl)pyridin-2-yl)-2-cyclobutyl-1-(4-(thiazol-5-yl)phenyl)vinyl)phenyl)acrylic acid], for which, in assay [1], the “MCF7 Viability Assay Max Response” value is listed as “++ (++ = a single % value ≧ 40%)” and the IC50 was at most 100 nM. Also, in assay [2], the Emax is at least 40% and the DC50 is at most 100 nM.

As to `CC/C(=C(/c1ccc(/C=C/C(=O)O)cc1)c1ccc(N2CCCCC2)cc1)c1ccccc1` [Example 24, (E)-3-(4-((E)-2-Phenyl-1-(4-(piperidin-1-yl)phenyl)but-1-en-1-yl)phenyl)acrylic acid], in assay [1], the “MCF7 Viability Assay Max Response” value is on record as “++ (++ = a single % value ≧ 40%)” and the 50% inhibitory concentration (IC50) is above 100 nM. In addition, in assay [2], the Emax was at least 40% and the DC50 was above 100 nM.

For `CC/C(=C(/c1ccc(/C=C/C(=O)O)cc1)c1ccc(-c2nccs2)cc1)c1ccccc1` [Example 8, (E)-3-(4-((E)-2-Phenyl-1-(4-(thiazol-2-yl)phenyl)but-1-en-1-yl)phenyl)acrylic acid], in assay [1], the “MCF7 Viability Assay Max Response” value is on record as “++ (++ = a single % value ≧ 40%)” and the IC50 is above 100 nM. Further, in assay [2], the Emax was at least 40% and the DC50 was at most 100 nM.

Take `CC/C(=C(/c1ccc(/C=C/C(=O)O)cc1)c1ccc(-c2cnsc2)cc1)c1ccccc1` [Example 15, (E)-3-(4-((E)-1-(4-(Isothiazol-4-yl)phenyl)-2-phenylbut-1-en-1-yl)phenyl)acrylic acid]: in assay [1], the “MCF7 Viability Assay Max Response” value is “++ (++ = a single % value ≧ 40%)” and the IC50 is above 100 nM. Moreover, in assay [2], the Emax was at least 40% and the DC50 is at most 100 nM.

In the case of `CC/C(=C(/c1ccc(/C=C/C(=O)O)cc1)c1ccc(-c2cncs2)cc1F)c1ccccc1` [Example 20, (E)-3-(4-((E)-1-(2-Fluoro-4-(thiazol-5-yl)phenyl)-2-phenylbut-1-en-1-yl)phenyl)acrylic acid], in assay [1], the “MCF7 Viability Assay Max Response” value was “++ (++ = a single % value ≧ 40%)” and the half-maximal inhibitory concentration (IC50) is at most 100 nM. In assay [2], the Emax was at least 40% and the DC50 is at most 100 nM.

With `CC/C(=C(/c1ccc(/C=C/C(=O)O)cc1)c1ccc(-c2cscn2)cc1)c1ccccc1` [Example 10, (E)-3-(4-((E)-2-Phenyl-1-(4-(thiazol-4-yl)phenyl)but-1-en-1-yl)phenyl)acrylic acid], in assay [1], the “MCF7 Viability Assay Max Response” value is listed as “++ (++ = a single % value ≧ 40%)” and the IC50 was above 100 nM. For the same compound, in assay [2], the Emax is at least 40% and the DC50 is at most 100 nM.

In the case of `O=C(O)/C=C/c1ccc(/C(=C(\c2ncccc2F)C2CCC2)c2ccc(-c3cn[nH]c3)cc2)cc1` [Example 41, (E)-3-(4-((E)-1-(4-(1H-Pyrazol-4-yl)phenyl)-2-cyclobutyl-2-(3-fluoropyridin-2-yl)vinyl)phenyl)acrylic acid], in assay [1], the “MCF7 Viability Assay Max Response” value is “++ (++ = a single % value ≧ 40%)” and the IC50 is above 100 nM. Moreover, in assay [2], the Emax was at least 40% and the DC50 is at most 100 nM.

As for `O=C(O)/C=C/c1ccc(/C(=C(\c2ccc(F)cc2Cl)C2CCC2)c2ccc(-c3cnn(CCO)c3)cc2)cc1` [Example 69, (E)-3-(4-((E)-2-(2-Chloro-4-fluorophenyl)-2-cyclobutyl-1-(4-(1-(2-hydroxyethyl)-1H-pyrazol-4-yl)phenyl)vinyl)phenyl)acrylic acid], in assay [1], the “MCF7 Viability Assay Max Response” value was “++ (++ = a single % value ≧ 40%)” and the concentration for half-maximal inhibition (IC50) is at most 100 nM. Moreover, in assay [2], the Emax is at least 40% and the DC50 was at most 100 nM.

`COc1cc(C)c(/C(=C(\c2ccc(/C=C/C(=O)O)cc2)c2ccc(N3CCOCC3)cc2)C2CCC2)cn1` [Example 39, (E)-3-(4-((E)-2-Cyclobutyl-2-(6-methoxy-4-methylpyridin-3-yl)-1-(4-morpholinophenyl)vinyl)phenyl)acrylic acid]: in assay [1], the “MCF7 Viability Assay Max Response” value is recorded as “++ (++ = a single % value ≧ 40%)” and the IC50 is at most 100 nM. Moreover, in assay [2], the Emax is at least 40% and the DC50 was at most 100 nM.

Turning to `O=C(O)/C=C/c1ccc(/C(=C(\c2ncc(C(F)(F)F)cc2Cl)C2CCC2)c2ccc(N3CCOCC3)cc2)cc1` [Example 57, (E)-3-(4-((E)-2-(3-Chloro-5-(trifluoromethyl)pyridin-2-yl)-2-cyclobutyl-1-(4-morpholinophenyl)vinyl)phenyl)acrylic acid], in assay [1], the “MCF7 Viability Assay Max Response” value is “++ (++ = a single % value ≧ 40%)” and the 50% inhibitory concentration (IC50) is at most 100 nM. Besides, in assay [2], the Emax was at least 40% and the DC50 is at most 100 nM.

`COc1ccc(/C(=C(\c2ccc(/C=C/C(=O)O)cc2)c2ccc(-c3cncs3)cc2)C2CCC2)c(C)c1` [Example 54, (E)-3-(4-((E)-2-Cyclobutyl-2-(4-methoxy-2-methylphenyl)-1-(4-(thiazol-5-yl)phenyl)vinyl)phenyl)acrylic acid]: in assay [1], the “MCF7 Viability Assay Max Response” value is “++ (++ = a single % value ≧ 40%)” and the half-maximal inhibitory concentration (IC50) is at most 100 nM. Moreover, in assay [2], the Emax was at least 40% and the DC50 is at most 100 nM.

As to `COc1ccc(/C(=C(\c2ccc(/C=C/C(=O)O)cc2)c2ccc(-c3cn[nH]c3)cc2)C2CCC2)c(Cl)c1` [Example 51, (E)-3-(4-((E)-1-(4-(1H-Pyrazol-4-yl)phenyl)-2-(2-chloro-4-methoxyphenyl)-2-cyclobutylvinyl)phenyl)acrylic acid], in assay [1], the “MCF7 Viability Assay Max Response” value is recorded as “++ (++ = a single % value ≧ 40%)” and the IC50 was at most 100 nM. In assay [2], the Emax is at least 40% and the DC50 was at most 100 nM.

Turning to `CC1CCN(c2ccc(/C(=C(/c3ccccc3)C3CCC3)c3ccc(/C=C/C(=O)O)cc3)cc2)CC1` [Example 64, (E)-3-(4-((E)-2-Cyclobutyl-1-(4-(4-methylpiperidin-1-yl)phenyl)-2-phenylvinyl)phenyl)acrylic acid], in assay [1], the “MCF7 Viability Assay Max Response” value is “++ (++ = a single % value ≧ 40%)” and the IC50 is above 100 nM. For the same compound, in assay [2], the Emax was at least 40% and the DC50 is above 100 nM.

Turning to `CC/C(=C(/c1ccc(/C=C/C(=O)O)cc1)c1cccc(-c2ccn[nH]2)c1)c1ccccc1` [Example 7, (E)-3-(4-((E)-1-(3-(1H-Pyrazol-5-yl)phenyl)-2-phenylbut-1-en-1-yl)phenyl)acrylic acid], in assay [1], the “MCF7 Viability Assay Max Response” value was “+ (+ = a single % value < 40%)” and the IC50 was above 100 nM. Further, in assay [2], the Emax was at least 40% and the DC50 is above 100 nM.

In the case of `O=C(O)/C=C/c1ccc(/C(=C(\c2ccccc2)C2CCC2)c2ccc(-c3cnn(CCO)c3)cc2)cc1` [Example 67, (E)-3-(4-((E)-2-Cyclobutyl-1-(4-(1-(2-hydroxyethyl)-1H-pyrazol-4-yl)phenyl)-2-phenylvinyl)phenyl)acrylic acid], in assay [1], the “MCF7 Viability Assay Max Response” value is “++ (++ = a single % value ≧ 40%)” and the IC50 was at most 100 nM. Moreover, in assay [2], the Emax is at least 40% and the DC50 is at most 100 nM.
